Data: US20060035927A1, “Calcilytic compounds” (SmithKline Beecham Corporation, priority 1999, published 2006)

Legend:
osteopenic ovx rats [1] = experiment: Ovariectomized rat Study 1: dynamic histomorphometry of proximal tibia; type: in vivo
Text: (§1) Seven month old virgin Sprague Dawley female rats were subjected to bilateral ovariectomy or sham surgery and the animals then held for a period of three months to allow the development of osteopenia. At that time a single sham group (n=10) and three groups of ovariectomized (ovx) animals (n=10-14) were assigned. The ovx groups were selected such that there was no significant difference in bone mineral density (“BMD”) of the lumbar spine, proximal tibia or distal femur between groups. Groups consisted of sham and ovx controls treated with dose vehicle (20% aqueous encapsin) and ovx groups treated with either N-[(2R-Hydroxy-3-[(3-chloro-2-cyano)phenoxy-propyl]-1,1-dimethyl-2-(2-naphthyl)ethyl amine hydrochloride (“calcilytic administered”) ([…] body weight daily p.o.) or rat PTH 1-34 (5 ug/kg body weight daily s.c.).
(§2) During the study blood samples were drawn for determination of circulating PTH and osteocalcin. BMD was determined by DXA (QDR4500 Hologic, Waltham, Mass.) prior to treatment and at weeks 4 and 8. At term tibiae were removed for histological analysis. All animals received tetracycline 10 and 3 days prior to the start of dosing and calcein (10 mg/kg) 10 and 3 days prior to sacrifice.
(§3) Bone samples were dehydrated through increasing concentrations of ethanol, defatted in acetone and embedded in methyl methacrylate (Polysciences, Inc., Warrington, Pa.). Longitudinal undecalcified sections (5 μm) sections of the proximal tibial were cut on a Leica microtome (SM2500S); the tissue blocks had been prestained with Villanueva stain. Histomorphometric analysis was carried out using an Osteomeasure system (OsteoMetrics Incorpotated), without knowledge of group allocation. Measurements within the tibial metaphysis were restricted to a mean tissue area of approximately 8 mm^2 beginning 1 mm below the growth plate. Primary measurements included area of bone and marrow (mm^2), bone area (mm^2), perimeter of bone (mm), single and double-labelled perimeter (sL.Pm, dL.Pm, m), osteoid perimeter (O.Pm, m) and eroded perimeter (Er.P, m). Derived indices included trabecular bone volume (% Tb.Ar), trabecular number (Th.N, mm^−1), trabecular thickness (Th.Th, μm), trabecular separation (Th.Sp, μm), bone formation rate, surface referent (BFR/Tb.Pm, μm^3/μm^2/year), BFR/Tb.Ar (bone area referent, %/year), BFR/B.Ar (tissue referent, %/year) and mineral apposition rate (MAR, μm/day), and percent labelled perimeter (% Lp). Statistical analysis was assessed by a two sided t-test.

osteopenic ovx rats [2] = experiment: Ovariectomized rat Study 1: bone mineral density by DXA; type: in vivo; conditions: Study 1, ovx rats, 5 ug/kg daily PTH s.c., eight weeks
Text: as §1, §2

[3] = tested on: human TF274 osteoblastic cells; experiment: Osteoblast cAMP production, TF274 cells; type: cell-based; conditions: compound 0.1, 1 and 10 uM, PTH 40 ng/ml positive control
Protocol: (§4) cAMP accumulation was measured in both human TF274 osteoblastic cells (derived by immortalization of human bone marrow stromal cells) see James, supra, and primary human osteoblasts derived from explants of trabecular bone as described in Beresford, Biochim. Biophys. Acta, Vol. 801, pp. 58-65 ([…]). cAMP levels in cell samples were measured using a non-radioactive protocol (Amersham kit). Alkaline phosphatase activity was determined using the standard colorimetric method as described previously in Gowen, Arth. Rheum., Vol. 31, pp. 1500-1507 (1988). N-[(2R-Hydroxy-3-[(3-chloro-2-cyano)phenoxy-propyl]-1,1-dimethyl-2-(2-naphthyl)ethyl amine hydrochloride was tested at 0.1, 1 and 10 uM. PTH 40 ng/ml was used as a positive control.

[4] = cited from earlier work
[5] = s.c. infusion 40 and 80 ug/kg/day over periods of 2 hours or more; cited from earlier work
[6] = rats, PTH dose of 80 ug/kg, published studies; cited from earlier work
plasma PTH = experiment: Ovariectomized rat Study 1: circulating PTH levels (RIA); type: in vivo; conditions: Study 1, 5 ug/kg PTH s.c.
Text: as §1, §2
Timed plasma samples were collected relative to administration of compound or PTH. PTH 1-34 was measured by RIA (Nichols Institute Diagnostics, San Juan Capistrano, Calif.). The concentrations of compound in the plasma were quantified by LC/MS/MS (limit of detection 10 ng/ml).

[7] = tested on: primary human osteoblasts; experiment: Osteoblast cAMP production, primary human osteoblasts; type: cell-based; conditions: compound 0.1, 1 and 10 uM, PTH 40 ng/ml positive control
Protocol: as §4

human osteoclasts = experiment: Human osteoclast-mediated bone resorption assay; type: cell-based; conditions: 24 hours, bovine cortical bone particles
Protocol: The isolation of disaggregated human osteoclasts from fresh osteoclastoma tissue and the in vitro human osteoclast resorption assay were performed according to James, J. Bone Min. Res., Vol. 11, pp. 1453-1460. Briefly, human osteoclasts were seeded onto bovine cortical bone particles with compound or vehicle for 24 hours at 37° C. The culture media were then removed and the levels of the carboxy-terminal peptide of the α1 chain of human type I collagen were quantified as a biochemical readout of resorption, using a competitive binding enzyme linked immunosorbant assay (ELISA) (19) (Osteometer A/S, Rodovre, Denmark). The results are expressed as percent inhibition of resorption compared to supernatants derived from osteoclasts cultured in vehicle without inhibitor. IC50 values are determined from the resultant dose response curves.

osteopenic ovx rats [8] = experiment: Ovariectomized rat Study 2: calcilytic plus/minus 17β estradiol, histology and histomorphometry of proximal tibia; type: in vivo; conditions: Study 2, proximal tibia, static histomorphometry, vs ovx group
Protocol: as §3, with “Animals were prepared and monitored as described above. […] Dosing continued for 5 weeks at which point the animals were sacrificed and the tibiae were collected for histological analysis. Bone” for “Bone”, “(S[…]);” for “(SM2500S);”, “Derived indices included trabecular bone volume (% Tb.Ar), trabecular number (Th.N, mm^−1), trabecular thickness (Th.Th, μm), trabecular separation (Th.Sp, μm), bone formation rate, surface referent (BFR/Tb.Pm, μm^3/μm^2/year), BFR/Tb.Ar (bone area referent, %/year), BFR/B.Ar (tissue referent, %/year) and mineral apposition rate (MAR, μm/day), and percent labelled perimeter (% Lp).” left out

[9] = Study 1, proximal tibia, vs ovx control, calcilytic 100 mmol/kg p.o. or PTH 5 ug/kg s.c. daily
[10] = clinical, 0.4 ug/kg, 30 minutes after dosing

## PTH: parathyroid hormone; rat PTH 1-34 s.c. in the rat studies, PTH 40 ng/ml as positive control in osteoblast assays [reference compound]
Osteopenic ovx rats [1]; Study 1, overall outcome
  bone formation and resorption, net bone gain or loss: increased both resorption and formation, but formation exceeded resorption, resulting in increased bone mass
Osteopenic ovx rats [1]; [9]
  bone formation: % labeled perimeter (% L.Pm.): elevated above the ovx control level
  bone formation: % osteoid perimeter (% Os.Pm): elevated above the ovx control level
Osteopenic ovx rats [2]
  bone mass (BMD) in the proximal tibia: returned to pre-ovx levels
[3]
  cAMP levels (basal): two-fold increase
[4]; clinical studies, approximate doses of 0.4-0.8 ug/kg body weight
  bone mass: increased bone mass
[4]; [10]
  circulating levels of PTH 1-34: approximately 90 pmol/l
  increase in circulating PTH levels: three-fold increase
[5]
  adverse effects of prolonged PTH infusion: rapid loss in body weight, hypercalcemia and histological abnormalities in the skeleton
[6]
  circulating level of PTH: 5,000-14,000 pg/ml
Plasma PTH
  time of return of PTH levels to baseline after dosing: 2 to 4 h
Plasma PTH; compared with calcilytic-dosed animals
  PTH levels in animals given PTH: in the same range
[7]
  cAMP levels (basal): two-fold increase

## 3,1,1-bis (2-methylpropyl)-4,7,10-trioxo-2,5,6,8,9,12-hexaazatridecanedioate [reference compound]
Human osteoclasts
  IC50: 900 nM

## C[C@]12CC[C@@H]3c4ccc(O)cc4CC[C@H]3[C@@H]1CC[C@@H]2O [estradiol, 17β estradiol, reference compound]
Osteopenic ovx rats [8]
  % trabecular area (% Tb.Ar.) / ovx-induced bone loss: not significantly restored
